These results are taken from patent US20250241586A1, “Bioavailability and bioequivalence through intrinsic activity and KD measurements, in vivo, in humans” (priority 2024, published 2025).

pKd: −log10 of the molar value. Read-outs that look alike come from different tables or passages of the source.

The subject of one data set is benzodiazepine receptors. Nature of the data set: Sleep time in human male volunteers; in vivo KD from reciprocals plot. The conditions noted are these: for A Free drug**: free drug quantity crossing the blood brain barrier. On the procedure:
Drug action is measured by the following parameters all measured in vivo in living animals/humans. • A) Onset time and threshold dose/concentration (minimum dose/concentration to initiate the effect,) these indicate the potency of the drug. • B) Intrinsic Activity or the maximum possible effect, • C) Dissociation constant. Its reciprocal measures the affinity of the drug for the receptor. The above named, parameters have been measured as stated below:
The literature also notes that there could be huge differences in in vivo and in vitro values and in such cases in vivo values are to be taken, if available (1). […] A point in this regard is that many drugs act on multiple receptor systems and in such cases the response is to be chosen such that only one receptor system is involved. […] The assumption is valid since the amount of bound drug is negligible compared to the total amount of drug at receptor and may be neglected. […] Alprazolam was administered to human male volunteers with sound health, of average weight and having normal creatinine clearance in the doses of 4 mcg/kg, 6 mcg/kg and 8 mcg/kg, and onset and sleep times noted. • The amount of free drug crossing the blood brain barrier was obtained.

Data set [1] concerns the target K+ channels of the beta cells of the pancreas (Homo sapiens, UniProt Q09428). Conditions: for KD: in vivo in humans, from slope of 1/fractional response vs 1/A plot.
The conditions of data set [2]: in vitro and cell culture; read-out: KD literature values; cited from earlier work.

Sequence of K+ channels of the beta cells of the pancreas (Q09428 whole entry): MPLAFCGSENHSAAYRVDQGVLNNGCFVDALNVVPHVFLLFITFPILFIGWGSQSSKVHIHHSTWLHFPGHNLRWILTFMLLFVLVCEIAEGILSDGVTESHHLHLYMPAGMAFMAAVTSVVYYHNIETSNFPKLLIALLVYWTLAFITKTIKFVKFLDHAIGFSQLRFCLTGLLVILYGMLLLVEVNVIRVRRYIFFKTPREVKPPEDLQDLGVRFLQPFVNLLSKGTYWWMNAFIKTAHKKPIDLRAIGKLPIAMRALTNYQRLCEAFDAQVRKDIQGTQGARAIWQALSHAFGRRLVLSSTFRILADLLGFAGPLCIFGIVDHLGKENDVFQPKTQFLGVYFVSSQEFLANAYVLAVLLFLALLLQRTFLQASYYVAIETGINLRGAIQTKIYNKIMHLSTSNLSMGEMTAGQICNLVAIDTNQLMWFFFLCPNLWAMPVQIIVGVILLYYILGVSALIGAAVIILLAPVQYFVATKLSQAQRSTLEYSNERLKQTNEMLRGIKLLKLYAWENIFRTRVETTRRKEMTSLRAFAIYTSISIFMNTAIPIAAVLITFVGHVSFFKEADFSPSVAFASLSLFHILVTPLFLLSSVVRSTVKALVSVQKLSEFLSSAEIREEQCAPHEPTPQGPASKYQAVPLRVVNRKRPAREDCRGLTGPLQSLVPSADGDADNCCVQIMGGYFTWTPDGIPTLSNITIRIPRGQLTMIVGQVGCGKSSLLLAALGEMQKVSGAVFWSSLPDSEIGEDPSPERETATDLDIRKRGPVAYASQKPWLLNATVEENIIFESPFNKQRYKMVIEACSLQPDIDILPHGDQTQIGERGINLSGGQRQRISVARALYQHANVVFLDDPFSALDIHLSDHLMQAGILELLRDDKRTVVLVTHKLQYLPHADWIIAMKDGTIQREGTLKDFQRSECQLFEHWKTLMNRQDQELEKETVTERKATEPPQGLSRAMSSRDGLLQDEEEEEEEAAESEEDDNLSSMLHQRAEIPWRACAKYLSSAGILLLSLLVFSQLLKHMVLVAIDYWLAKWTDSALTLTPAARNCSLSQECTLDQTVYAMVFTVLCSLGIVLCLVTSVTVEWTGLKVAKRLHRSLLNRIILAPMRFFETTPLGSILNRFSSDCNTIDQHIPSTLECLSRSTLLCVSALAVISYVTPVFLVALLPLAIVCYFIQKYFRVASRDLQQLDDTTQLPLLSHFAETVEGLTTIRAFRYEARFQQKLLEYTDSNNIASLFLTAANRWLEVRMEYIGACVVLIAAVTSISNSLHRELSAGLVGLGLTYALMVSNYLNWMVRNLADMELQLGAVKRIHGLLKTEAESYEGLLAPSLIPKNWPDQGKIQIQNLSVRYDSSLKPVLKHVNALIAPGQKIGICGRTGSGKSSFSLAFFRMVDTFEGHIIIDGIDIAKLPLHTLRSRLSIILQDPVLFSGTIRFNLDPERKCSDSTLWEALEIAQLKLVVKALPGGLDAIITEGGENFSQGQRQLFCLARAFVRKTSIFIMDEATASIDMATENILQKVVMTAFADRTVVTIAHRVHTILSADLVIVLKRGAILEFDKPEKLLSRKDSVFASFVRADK
Sequence of K+ channels of the beta cells of the pancreas (Q14654 whole entry partner): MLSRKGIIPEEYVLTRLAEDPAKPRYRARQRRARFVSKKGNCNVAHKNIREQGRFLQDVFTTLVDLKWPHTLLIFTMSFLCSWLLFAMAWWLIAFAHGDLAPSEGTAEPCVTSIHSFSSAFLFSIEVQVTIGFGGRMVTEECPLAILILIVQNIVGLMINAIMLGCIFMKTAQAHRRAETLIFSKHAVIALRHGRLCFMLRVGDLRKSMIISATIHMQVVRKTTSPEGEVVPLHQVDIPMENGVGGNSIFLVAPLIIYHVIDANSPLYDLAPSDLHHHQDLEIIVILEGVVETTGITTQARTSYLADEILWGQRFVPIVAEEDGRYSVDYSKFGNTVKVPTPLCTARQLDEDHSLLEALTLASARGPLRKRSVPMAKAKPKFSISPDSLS

As usually defined, the pKd is the Kd on a negative log10 scale, so that one unit is a factor of ten. As for `Cc1nnc2n1-c1ccc(Cl)cc1C(c1ccccc1)=NC2` [Alprazolam, alprazolam], in the data set with benzodiazepine receptors (alprazolam dose 4 Mcg/kg), the 1/A turned out to be 225.8, the 1/Fractional response was found to be 3.8, the Response sleep time was 63 min and the “A Free drug**” value is 0.0044 Mcg/ml. In the data set with benzodiazepine receptors (alprazolam dose 6 Mcg/kg), the 1/A came out at 151.4, the 1/Fractional response was found to be 2.4, the Response sleep time stood at 100 min and the “A Free drug**” value is 0.0066 Mcg/ml. Moreover, in the data set with benzodiazepine receptors (alprazolam dose 8 Mcg/kg), the 1/A amounted to 49.8, the 1/Fractional response is reported as 1.0, the Response sleep time is given as 241 min and the “A Free drug**” value amounted to 0.0088 Mcg/ml. Besides, the Threshold dose in the data set on benzodiazepine receptors (humans) is listed as 4 mcg/kg bodyweight. For the same compound, the pKd in the data set on benzodiazepine receptors (in vivo in humans, response sleep time, free drug crossing the blood brain barrier, slope of reciprocals plot) is 7.29.

What is called KD is the constant that tells how readily two partners part at equilibrium. With `CCC1=C(C)CN(C(=O)NCCc2ccc(S(=O)(=O)NC(=O)N[C@H]3CC[C@H](C)CC3)cc2)C1=O` [Glimepride, glimepride], the 1/Fractional response in data set [1] (glimepride dose 5 Mcg/kg) was determined as 17.24; in data set [1] (glimepride dose 10 Mcg/kg) it was 4.48; in data set [1] (glimepride dose 20 Mcg/kg), 1.0. Moreover, the “Response AUC reduction” value turned out to be 30 mg·h/dL in data set [1] (glimepride dose 5 Mcg/kg), 115 mg·h/dL in data set [1] (glimepride dose 10 Mcg/kg) and 514 mg·h/dL in data set [1] (glimepride dose 20 Mcg/kg). Moreover, the results for the KD result in data set [1] and in data set [1] (listed as glimepride) were “KD = 2.018 nM” and 2.0 nM, respectively. The same compound yielded a Threshold dose in data set [1] (point of inflection of log dose response curve, humans) of 5 mcg/kg body weight.

Regarding `Cc1cnc(C(=O)NCCc2ccc(S(=O)(=O)NC(=O)NC3CCCCC3)cc2)cn1` [Glipizide, glipizide], the KD result in data set [1] is reported as “KD = 8.98 nM”; in data set [1] (listed as glipizide), 8.98 nM. Also, in data set [2], the pKd was around 8.00.
